US8148402B2, “Isoindolinone derivatives having inhibitory activity against T-type calcium channel and method for preparation thereof” (Korea Institute of Science and Technology, priority 2008, dated 2012)

Experiments:
[1] = target: T-type calcium channel (Homo sapiens, UniProt O43497); assay: Measurement of ion currents through T-type calcium channel using automated patch clamp; type: cell-based; details: whole-cell automated patch clamp, HEK-293 cells expressing T-type calcium channel, 10 mM Ba2+
Sequence of T-type calcium channel (O43497 whole entry): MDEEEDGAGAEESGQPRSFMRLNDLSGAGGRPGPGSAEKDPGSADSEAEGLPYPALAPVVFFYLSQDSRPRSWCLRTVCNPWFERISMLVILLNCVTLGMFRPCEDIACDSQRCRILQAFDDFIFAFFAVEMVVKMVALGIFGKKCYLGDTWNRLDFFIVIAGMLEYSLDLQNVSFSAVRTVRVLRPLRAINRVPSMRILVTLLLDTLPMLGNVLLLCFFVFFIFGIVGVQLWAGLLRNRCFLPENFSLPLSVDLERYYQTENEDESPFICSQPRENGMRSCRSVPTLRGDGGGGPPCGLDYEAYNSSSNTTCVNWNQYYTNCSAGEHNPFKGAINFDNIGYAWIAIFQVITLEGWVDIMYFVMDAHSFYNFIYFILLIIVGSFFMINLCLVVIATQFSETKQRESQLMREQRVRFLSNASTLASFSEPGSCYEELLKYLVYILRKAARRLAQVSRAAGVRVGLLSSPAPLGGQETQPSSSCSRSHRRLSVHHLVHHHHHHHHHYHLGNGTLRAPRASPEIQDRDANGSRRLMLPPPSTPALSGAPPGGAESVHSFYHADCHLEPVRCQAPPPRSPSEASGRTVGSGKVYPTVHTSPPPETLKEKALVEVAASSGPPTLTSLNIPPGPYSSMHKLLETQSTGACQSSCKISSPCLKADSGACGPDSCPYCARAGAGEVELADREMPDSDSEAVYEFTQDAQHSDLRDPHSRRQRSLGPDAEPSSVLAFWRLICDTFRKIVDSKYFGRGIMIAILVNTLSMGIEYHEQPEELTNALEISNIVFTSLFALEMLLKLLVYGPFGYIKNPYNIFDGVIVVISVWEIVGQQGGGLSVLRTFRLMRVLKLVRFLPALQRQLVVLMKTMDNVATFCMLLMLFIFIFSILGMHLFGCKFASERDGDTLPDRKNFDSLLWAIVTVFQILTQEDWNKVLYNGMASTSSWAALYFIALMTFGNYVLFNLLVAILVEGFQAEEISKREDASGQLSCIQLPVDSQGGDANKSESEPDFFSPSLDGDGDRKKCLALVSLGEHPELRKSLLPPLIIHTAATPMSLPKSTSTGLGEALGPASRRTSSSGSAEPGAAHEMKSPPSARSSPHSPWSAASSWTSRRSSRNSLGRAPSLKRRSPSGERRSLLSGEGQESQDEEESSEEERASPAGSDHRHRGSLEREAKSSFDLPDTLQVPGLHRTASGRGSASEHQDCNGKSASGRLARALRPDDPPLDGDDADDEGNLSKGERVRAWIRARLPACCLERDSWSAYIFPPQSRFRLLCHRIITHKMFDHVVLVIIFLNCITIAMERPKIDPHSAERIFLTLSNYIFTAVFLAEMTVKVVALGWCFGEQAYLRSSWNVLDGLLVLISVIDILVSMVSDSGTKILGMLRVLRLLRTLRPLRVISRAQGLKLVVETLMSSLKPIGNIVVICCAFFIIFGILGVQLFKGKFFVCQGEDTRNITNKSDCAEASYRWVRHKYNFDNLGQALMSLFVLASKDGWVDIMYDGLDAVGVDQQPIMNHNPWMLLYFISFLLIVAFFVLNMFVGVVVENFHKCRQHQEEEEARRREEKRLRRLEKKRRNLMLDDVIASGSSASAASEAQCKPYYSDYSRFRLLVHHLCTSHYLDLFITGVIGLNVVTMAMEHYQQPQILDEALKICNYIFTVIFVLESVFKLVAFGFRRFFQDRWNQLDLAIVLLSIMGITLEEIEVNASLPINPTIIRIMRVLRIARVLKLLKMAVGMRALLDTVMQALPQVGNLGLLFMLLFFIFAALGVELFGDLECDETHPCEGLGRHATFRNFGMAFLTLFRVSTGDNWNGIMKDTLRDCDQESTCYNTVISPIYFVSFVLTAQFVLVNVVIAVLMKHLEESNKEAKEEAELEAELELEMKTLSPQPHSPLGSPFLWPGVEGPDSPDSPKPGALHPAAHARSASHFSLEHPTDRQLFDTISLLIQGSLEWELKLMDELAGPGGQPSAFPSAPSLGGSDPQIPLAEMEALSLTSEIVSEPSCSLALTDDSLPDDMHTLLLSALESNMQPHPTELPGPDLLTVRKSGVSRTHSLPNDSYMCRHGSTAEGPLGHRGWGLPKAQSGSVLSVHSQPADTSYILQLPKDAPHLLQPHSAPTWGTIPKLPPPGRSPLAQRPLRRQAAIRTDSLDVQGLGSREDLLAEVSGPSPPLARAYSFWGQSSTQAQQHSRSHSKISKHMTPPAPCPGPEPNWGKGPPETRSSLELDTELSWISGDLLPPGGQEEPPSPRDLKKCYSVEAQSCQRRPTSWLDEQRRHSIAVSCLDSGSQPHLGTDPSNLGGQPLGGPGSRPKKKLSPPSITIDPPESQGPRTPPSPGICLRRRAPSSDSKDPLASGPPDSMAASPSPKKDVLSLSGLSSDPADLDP
Source text: The selected compounds were used in a second assay for T-type calcium channel inhibiting activity using electrophysiological whole cell patch clamp method, wherein mammal HEK293 cell lines, which are originated from human kidney carcinoma cells and which specifically express alG of T-type calcium channel, were used for the second assay. As a reference drug, mibefradil which had been developed as T-type calcium channel inhibitor was used.
Stably expressed T-type calcium channels in Human Embryonic Kidney (HEK)-293 cell were provided by Korea Research Institute of Bioscience and Biotechnology (KRIBB) and hERG (human ether-a-go-go-related gene) channels induced by a Tet-expression system expressed in HEK-293 cell were purchased from Iongate (Frankfurt, Germany). In a humidified 5% CO2 incubator at 37° C., T-type calcium channel expressed cells were maintained in Dulbecco's modified Eagle's medium (DMEM) including 10% Fetal Bovine Serum (FBS), and hERG channel expressed cells were maintained in MEM with 10% FBS. For hERG channel expression, the Tet-expression system was activated by adding 1 μg/ml Doxycyclin into the hERG channel cell growth medium 20 h prior to use. Cell lines were subcultured once in three days and used for patch clamp recordings at final confluence of 50-80%. To harvest cells, cell detacher, Trypsin-EDTA (0.25×) was added into the dish and single cells were made using a pipette. Trypsin was removed by centrifugation at 1100 rpm for 3 min. Cells were automatically suspended after adding external cellular solution at room temperature.
The composition of solution for measuring T-type calcium channel and hERG channel activity is following: 140 mM NaCl, 2 mM CaCl2, 4 mM KCl, 1 mM MgCl2, 5 mM D-glucose and 10 mM HEPES (pH 7.4) for external cellular solution, 50 mM KCl, 10 mM NaCl, 60 mM KF, 2 mM MgCl2, 10 mM HEPES and 20 mM EGTA (pH 7.2) for internal cellular solution and 80 mM NaCl, 35 mM CaCl2, 3 mM KCl, 10 mM MgCl2 and 10 mM HEPES (pH 7.4) for seal enhancer. T-type calcium channel activity was recorded after adding 10 mM Ba^2+ into external solution. Each compound dissolved in 100% DMSO with a final concentration of 100 mM was diluted to 10 nM˜100 μM range in external solution with 10 mM Ba^2+ for T-type calcium channel and no Ba^2+ for hERG channel recordings.
In all experiments, auto patch clamp machine NPC©-16 Patchliner (Nanion Technologies, Germany) and whole-cell patch clamp technique were used. Channel current was recorded by EPC10 (HEKA, Germany) amplifier. Cell suspension and patch solutions were automatically divided into the chip (NPC-16 Chip, Nanion Technologies, Germany). Inward current was recorded at −20 mV depolarization potential at intervals of 10 s during 300 ms with −100 mV holding potential for T-type calcium channels, and tail current was recorded at −50 mV at intervals of 10 s during 500 ms after 20 mV depolarization during 200 ms with −80 mV holding potential for hERG channels. Compounds at each concentration were applied to the cell during 20 s. Inhibition curves and IC50 values were automatically calculated from peak currents using data analysis program, IGOR Pro (WaveMetrics, USA).

[2] = target: T1, α1G T-type Ca2+ channels (Homo sapiens, UniProt O43497); assay: Assay for inhibitory activity against T-type calcium channel using FDSS6000; type: cell-based; details: HEK293 cells expressing α1G and Kir2.1, KCl (70 mM) depolarization, fluo3/AM, read-out: FDSS (% Inhibition, at 10 μM)
T1 construct: expressed in transfected cells
T1 sequence (O43497 whole entry): as above
Method: Meanwhile, the novel compounds of Chemical Formula 1 in accordance with the present invention were assayed for antagonistic activity against T-type calcium channels. In this regard, an examination was made of the % inhibition of the compounds against T-type calcium channel using FDSS6000.
In the present invention, in order to search for an efficient inhibitor against T-type calcium channel, a primary assay for T-type calcium channel inhibiting activity was conducted by a high-efficient assay using FDSS6000, wherein mammal HEK293 cell lines (originated from human kidney carcinoma cells), which specifically express alG of T-type calcium channel, were used for the primary assay.
HEK293 cells which stably express both α1G and Kir2.1 subunits were grown in Dulbecoo's modified Eagle's medium supplemented with 10% (v/v) fetal bovine serum, penicillin (100 U/ml), streptomycin (100 µg/ml), geneticin (500 µg/ml), and puromycin (1 μg/ml) at 37° C. in a humid atmosphere of 5% CO2 and 95% air. Cells were seeded into 96-well black wall clear bottom plates at a density of 40,000 cells/well and were used on the next day for high-throughput screening (HTS) FDSS6000 assay. For FDSS6000 assay, cells were incubated for 60 min at room temperature with 5 µM fluo3/AM and 0.001% Pluronic F-127 in a HEPES-buffered solution composed of (in MM): 115 NaCl, 5.4 KCl, 0.8 MgCl2, 1.8 CaCl2, 20 HEPES, 13.8 glucose (pH 7.4). During fluorescence-based FDSS6000 assay, […]1G T-type Ca^2+ channels were activated using a high concentration of KCl (70 mM) in 10 mM CaCl2 contained HEPES-buffered solution, and the increase in [Ca^2+]i by KCl-induced depolarization was detected. All data were collected and analyzed using FDSS6000 and related software (Hamamatsu, Japan).

SMILES | IC50 [1] [nM] | inhibition at 10 µM [2] [%]
CC(C)C1CCCCN1CCCNC(=O)c1ccc2c(c1)C(=O)N(Cc1cccc(Br)c1)C2 (centres unmarked) [Compound 42, 2-(3-bromobenzyl)-N-(3-(2-isopropylpiperidin-1-yl)propyl)-3-oxoisoindoline-5-carboxamide] | 4150 | 44.4
CCCC1CCCCN1CCCNC(=O)c1ccc2c(c1)C(=O)N(Cc1ccc(I)cc1)C2 (centres unmarked) [Compound 36, 2-(4-iodobenzyl)-3-oxo-N-(3-(2-propylpiperidin-1-yl)propyl)isoindoline-5-carboxamide] | 6870 | 53.8
CC(C)C1CCCCN1CCCNC(=O)c1ccc2c(c1)C(=O)N(Cc1cccc(I)c1)C2 (centres unmarked) [Compound 44, 2-(3-iodobenzyl)-N-(3-(2-isopropylpiperidin-1-yl)propyl)-3-oxoisoindoline-5-carboxamide] | 4360 | 60.7
CC(C)C1CCCCN1CCCNC(=O)c1ccc2c(c1)C(=O)N(Cc1ccc(Br)cc1)C2 (centres unmarked) [Compound 43, 2-(4-bromobenzyl)-N-(3-(2-isopropylpiperidin-1-yl)propyl)-3-oxoisoindoline-5-carboxamide] | 5100 | 51.7
O=C(NCCCN1CCCCC1)c1ccc2c(c1)C(=O)N(Cc1ccccc1)C2 [Compound 1, 2-benzyl-3-oxo-N-(3-(piperidin-1-yl)propyl)isoindoline-5-carboxamide] | 9570 | 22
O=C(NCCCN1CCCCC1)c1ccc2c(c1)C(=O)N(Cc1ccc(Br)cc1)C2 [Compound 7, 2-(4-bromobenzyl)-3-oxo-N-(3-(piperidin-1-yl)propyl)isoindoline-5-carboxamide] | 9770 | 33.4
CCC1CCCCN1CCCNC(=O)c1ccc2c(c1)C(=O)N(Cc1cccc(Br)c1)C2 (centres unmarked) [Compound 24, 2-(3-bromobenzyl)-N-(3-(2-ethylpiperidin-1-yl)propyl)-3-oxoisoindoline-5-carboxamide] | 4070 | 46

The next compounds have a lower IC50 [1] than those just listed; values first:

IC50 [1] [nM] | inhibition at 10 µM [2] [%] | SMILES
2650 | 55.3 | CCCCC1CCCCN1CCCNC(=O)c1ccc2c(c1)C(=O)N(Cc1ccccc1)C2 (centres unmarked) [Compound 46, 2-benzyl-N-(3-(2-butylpiperidin-1-yl)propyl)-3-oxoisoindoline-5-carboxamide]
2300 | 49 | CCCCC1CCCCN1CCCNC(=O)c1ccc2c(c1)C(=O)N(Cc1cccc(F)c1)C2 (centres unmarked) [Compound 47, N-(3-(2-butylpiperidin-1-yl)propyl)-2-(3-fluorobenzyl)-3-oxoisoindoline-5-carboxamide]
1920 | 62.1 | CCCCC1CCCCN1CCCNC(=O)c1ccc2c(c1)C(=O)N(Cc1ccc(F)cc1)C2 (centres unmarked) [Compound 48, N-(3-(2-butylpiperidin-1-yl)propyl)-2-(4-fluorobenzyl)-3-oxoisoindoline-5-carboxamide]
1740 | 60.8 | CCCC1CCCCN1CCCNC(=O)c1ccc2c(c1)C(=O)N(Cc1cccc(Br)c1)C2 (centres unmarked) [Compound 33, 2-(3-bromobenzyl)-3-oxo-N-(3-(2-propylpiperidin-1-yl)propyl)isoindoline-5-carboxamide]
1540 | 55.2 | O=C(NCCCN1CCCCC1c1ccccc1)c1ccc2c(c1)C(=O)N(Cc1cccc(Br)c1)C2 (centres unmarked) [Compound 60, 2-(3-bromobenzyl)-3-oxo-N-(3-(2-phenylpiperidin-1-yl)propyl)isoindoline-5-carboxamide]
1070 | 45.6 | O=C(NCCCN1CCCCC1c1ccccc1)c1ccc2c(c1)C(=O)N(Cc1ccc(Br)cc1)C2 (centres unmarked) [Compound 61, 2-(4-bromobenzyl)-3-oxo-N-(3-(2-phenylpiperidin-1-yl)propyl)isoindoline-5-carboxamide]
1070 | 58.9 | CC(C)C1CCCCN1CCCNC(=O)c1ccc2c(c1)C(=O)N(Cc1ccc(I)cc1)C2 (centres unmarked) [Compound 45, 2-(4-iodobenzyl)-N-(3-(2-isopropylpiperidin-1-yl)propyl)-3-oxoisoindoline-5-carboxamide]
1010 | 56.7 | CC(C)C1CCCCN1CCCNC(=O)c1ccc2c(c1)C(=O)N(Cc1cccc(Cl)c1)C2 (centres unmarked) [Compound 40, 2-(3-chlorobenzyl)-N-(3-(2-isopropylpiperidin-1-yl)propyl)-3-oxoisoindoline-5-carboxamide]
620 | 71.8 | CCCCC1CCCCN1CCCNC(=O)c1ccc2c(c1)C(=O)N(Cc1cccc(Cl)c1)C2 (centres unmarked) [Compound 49, N-(3-(2-butylpiperidin-1-yl)propyl)-2-(3-chlorobenzyl)-3-oxoisoindoline-5-carboxamide]
